How the values were obtained:
[1] = tested on: FeCl3-induced carotid artery injury model; assay: Carotid artery FeCl3 injury thrombosis assay; assay type: in vivo, mice; settings: carvedilol 1.5 g/kg for one week; PAGln i.p.
Method: Briefly, rhodamine 6G (100 μL; 0.5 mg/mL) was injected directly into the right jugular vein to label platelets. The left carotid artery was exposed and injured by placing a FeCl3-soaked filter paper for 1 minute. […] Time to cessation of blood flow through clot formation for all studies was determined by visual inspection by two different investigators. End points were set as cessation of blood flow for 30 seconds to 30 minutes.

MEG01 cells [2] = assay: Dynamic mass redistribution (DMR) in MEG01 cells; assay type: cell-based, human
Method: (§1) Before proceeding for the experiments, cells were subjected to overnight incubation in reduced serum media opti-MEM. […] The cells were briefly centrifuged at room temperature at low speed (100 g for 10-15 sec) to allow settling down the cells at the bottom of the plate. After that, cells were allowed to temperature equilibrate for 1 h at room temperature prior to run DMR measurement. Firstly, basal DMR responses were graphed for around 15 min to obtain a baseline read that defines the zero level and also ensures the signal is stable. […] DMR response signal was recorded for 60-90 minutes post compound of interest addition.

HEL92.1.7 cells = assay: Dynamic mass redistribution (DMR) in HEL92.1.7 cells; assay type: cell-based, human; settings: increasing concentrations
Method: as §1

[3] = Metabolism of phenylacetic acid after i.p. injection; assay type: in vivo; settings: intraperitoneal (i.p.) injection in mice
[4] = tested on: human platelet rich plasma (PRP); assay: Platelet aggregometry in platelet rich plasma; assay type: cell-based; settings: inhibitor 10 μM; PAGln 100 μM; ADP 2 μM
Method: ADP (up to 4 μM), TRAP6 (up to 10 μM) and collagen (up to 1.0 μg/mL) were used as indicated to initiate aggregation with constant stirring (600 rpm).

MEG01 cells [5] = assay: cAMP assay in MEG01 cells; assay type: cell-based, human
Method: Real-time (RT) PCR in MEG01 cells: Total RNA was isolated from MEG01 cells following TRIZOL RNA isolation protocol post 40 h of siRNA transfection. […] Real time (RT) PCR was carried out following TaqMan Gene Expression Assays protocol using RT primers and probes of ADRA2A (assay Id Hs01099503_s1), ADRA2B (assay Id Hs00265081 s1) and ADRB2 (assay Id Hs00240532_s1) from ThermoFisher Scientific. cAMP assay in MEG01, Platelets and HEK293 cells: Intracellular cAMP levels were measured using CatchPoint Cyclic-AMP Fluorescent Assay Kit from molecular devices (Cat. R8089). Briefly, MEG01 cells were washed with 1×HBSS buffer with HEPES (20 mM; pH 7.4) and re-suspended in stimulation buffer (1×HBSS, HEPES (20 mM); pH 7.4, IBMX (0.5 mM), Rolipram (0.1 mM) and BSA (0.1%)). The cells were further seeded into 96 well cell culture plates with a density of ˜100 k cells per well in 100 μL stimulation buffer. Similarly, human washed platelets re-suspended very gently in stimulation buffer and seeded into a 96-well cell culture plates with ˜4-6 million platelets per well in 100 μL stimulation buffer. Both the MEG01 cells and platelets were kept thereafter at 37° C. incubator for 10 min before addition of the inhibitors or test compounds. Following incubation with stimulation buffer, 10 μL (10× concentration) of modulators/inhibitors (when necessary) were added and kept for 15 min at 37° C. […] The test compounds were made in buffer T (1×HBSS, HEPES (20 mM); pH 7.4, IBMX (0.5 mM) and Rolipram (0.1 mM)). The reaction was stopped by adding 50 μL of lysis buffer (provided in the kit CatchPoint Cyclic-AMP Fluorescent Assay Kit Cat. R8089-Molecular Devices), further added with IBMX (0.5 mM) and Rolipram (0.1 mM)) and agitated for 10 min in a plate shaker to facilitate cell lysis. Lysed cells are immediately proceeded to cAMP assay. For the quantification of cAMP, the lysed sample (40 μL), buffer control and cAMP calibrators were added in appropriate wells of a 96-well clear bottom, black wall cAMP assay plates (provided in the kit). Thereafter, reconstituted rabbit anti-cAMP antibody (40 μL) was added to all the wells and mix for 5 min on a plate shaker to ensure mixing. In the next step, reconstituted HRP-cAMP conjugate (40 μL) was added to every well, mixed properly and kept at room temperature for 2 h. The plate contents were aspirated thereafter and washed with wash buffer (300 μL (provided in the kit)) 4 times. Spotlight red substrate (provided in the kit) was added to each well minimizing the time between starting and finishing in dark. The plate was covered with aluminum foil and left at room temperature for at least 10 min before reading fluorescence intensity in a FlexStation 3 Multi-Mode Microplate Reader-Molecular devices. […] For cAMP assay in adherent cell lines, parental HEK293, and β2-HEK293 (stable) cells were seeded into 96-well cell culture microplates with approximately 50 k cells per well in DMEM (100 μL) media supplemented with FBS (10%), penicillin (100 U/mL) and streptomycin (100 μg/mL) in a humidified atmosphere at 37° C. in 5% CO2. Cells were grown for 24 h before proceeding for cAMP experiment following similar method as described for MEG01 cells. Intracellular Ca^2+ measurement: Intracellular Ca^2+ in MEG01, HEL92.1.7, parental HEK293, β2-HEK293 (stable) cells, empty vector (EV) transfected HEK293 cells, ADRA2A transfected HEK293 cells and in α2B-HEK293 stable cells was measured using FLIPR Calcium 5 Assay Kit-Molecular devices (Cat. R8186). […]

Structure (SMILES): COc1ccccc1OCCNCC(O)COc1cccc2[nH]c3ccccc3c12 (centres unmarked) [carvedilol]
- pro-thrombotic effect of PAGln on clot formation rate and occlusion time [1]: reversed by pretreatment of mice with carvedilol

Structure (SMILES): NC[C@H](O)c1ccc(O)c(O)c1 [norepinephrine]
- DMR dose response curves (MEG01 cells [2]; increasing concentrations): saturable and specific DMR dose response curves
- DMR dose-response signal (HEL92.1.7 cells): like norepinephrine

Structure (SMILES): O=C(O)Cc1ccccc1 [phenylacetic acid]
- metabolic fate [3]: predominantly metabolized into PAGly

Structure (SMILES): N[C@@H](Cc1ccccc1)C(=O)O [phenylalanine]
- DMR response (MEG01 cells [2]; addition of ligand): displayed no DMR response

Structure (SMILES): CC(C)NCC(O)COc1cccc2ccccc12 (centres unmarked) [propranolol]
- PAGln induced hyperresponsiveness of platelet aggregation [4]: attenuated the PAGln induced hyperresponsiveness
- DMR response to ATP after ADR inhibitors (MEG01 cells [2]; ATP 50 μM, inhibitor 10 μM): remained unchanged
- DMR response of isoproterenol (ISO) after ADR inhibitors (MEG01 cells [2]; ISO 10 μM, inhibitor 10 μM): diminished
- PAGln-induced DMR response after ADR inhibitors (MEG01 cells [2]; PAGln 100 μM, inhibitor 10 μM, 30 min): substantially reduced
- intracellular cAMP production after ISO treatment, with ADR inhibitors (MEG01 cells [5]): reduced
- PAGln induced intracellular cAMP production after ADR inhibitors (MEG01 cells [5]; PAGln 100 μM, 5 min exposure, inhibitor 10 μM): inhibited PAGln (5 min exposure) induced intracellular cAMP production

From patent US20230091848A1, “DISEASE DETECTION AND TREATMENT BASED ON PHENYLACETYL GLUTAMINE LEVELS” (The Cleveland Clinic Foundation, priority 2020, published 2023)
